Laboratory results: patent US20140343000A1 (priority 2011, published 2014)
Structures can show the parent of a compound that is named as a salt.

Each compound was assayed on recombinant NL4-3 virus (Renilla luciferase in nef, Gag P373S; NLRluc) in MT-2 cells (assay: whole plant or invertebrate). Conditions: Renilla, NL43, luciferase activity in cells infected for 4-5 days with NLRluc recombinants, serial dilutions of inhibitor; class symbols (key in Table 1); read-out: EC50.
Type: cell-based, HIV
Method in brief: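 MT-2 cells in RPMI 1640 with 10% heat-inactivated FBS were infected with the reporter virus, made by transfecting the proviral clone into 293T cells, and cultured 4-5 days with serial inhibitor dilutions. Antiviral activity was quantified from Renilla luciferase activity measured in lysed cells.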

Q: How did the EC50 turn out when `C=C(C)[C@@H]1CC[C@]2(NC(=O)CNCCO)CC[C@]3(C)[C@H](CC[C@@H]4[C@@]5(C)CC=C(c6ccc(C(=O)O)cc6)C(C)(C)[C@@H]5CC[C@]43C)[C@@H]12` [Example 106, 4-((1R,3aS,5aR,5bR,7aR,11aS,11bR,13aR,13bR)-3a-(2-(2-hydroxyethylamino)acetamido)-5a,5b,8,8,11a-pentamethyl-1-(prop-1-en-2-yl)-2,3,3a,4,5,5a,5b,6,7,7a,8,11,11a,11b,12,13,13a,13b-octadecahydro-1H-cyclopenta[a]chrysen-9-yl)benzoic acid] was run?
A: The EC50 was < 100 nM.

Q: Which EC50 does the source give for `C=C(C)[C@@H]1CC[C@]2(NCCN3CCN(S(=O)(=O)c4ccc5c(c4)OCCO5)CC3)CC[C@]3(C)[C@H](CC[C@@H]4[C@@]5(C)CC=C(c6ccc(C(=O)O)cc6)C(C)(C)[C@@H]5CC[C@]43C)[C@@H]12` [Example B52, 4-((1R,3aS,5aR,5bR,7aR,11aS,11bR,13aR,13bR)-3a-((2-(4-((2,3-dihydrobenzo[b][1,4]dioxin-6-yl)sulfonyl)piperazin-1-yl)ethyl)amino)-5a,5b,8,8,11a-pentamethyl-1-(prop-1-en-2-yl)-2,3,3a,4,5,5a,5b,6,7,7a,8,11,11a,11b,12,13,13a,13b-octadecahydro-1H-cyclopenta[a]chrysen-9-yl)benzoic acid] here?
A: The EC50 was < 100 nM.

Q: Which EC50 does the source give for `C=C(C)[C@@H]1CC[C@]2(NC(=O)N3CCNC(C(=O)O)C3)CC[C@]3(C)[C@H](CC[C@@H]4[C@@]5(C)CC=C(c6ccc(C(=O)O)cc6)C(C)(C)[C@@H]5CC[C@]43C)[C@@H]12` (mixture of isomers) [Example 63, 4-((1R,3aS,5aR,5bR,7aR,11aS,11bR,13aR,13bR)-9-(4-carboxyphenyl)-5a,5b,8,8,11a-pentamethyl-1-(prop-1-en-2-yl)-2,3,3a,4,5,5a,5b,6,7,7a,8,11,11a,11b,12,13,13a,13b-octadecahydro-1H-cyclopenta[a]chrysen-3a-ylcarbamoyl)piperazine-2-carboxylic acid] here?
A: The EC50 was < 100 nM.

Q: Which EC50 does the source give for `C=C(C)[C@@H]1CC[C@]2(NCCN3CCN(S(=O)(=O)CS(C)(=O)=O)CC3)CC[C@]3(C)[C@H](CC[C@@H]4[C@@]5(C)CC=C(c6ccc(C(=O)O)cc6)C(C)(C)[C@@H]5CC[C@]43C)[C@@H]12` [Example B42, 4-((1R,3aS,5aR,5bR,7aR,11aS,11bR,13aR,13bR)-5a,5b,8,8,11a-pentamethyl-3a-((2-(4-(((methylsulfonyl)methyl)sulfonyl)piperazin-1-yl)ethyl)amino)-1-(prop-1-en-2-yl)-2,3,3a,4,5,5a,5b,6,7,7a,8,11,11a,11b,12,13,13a,13b-octadecahydro-1H-cyclopenta[a]chrysen-9-yl)benzoic acid] here?
A: Its EC50 is < 100 nM.

Q: `C=C(C)[C@@H]1CC[C@]2(NC(=O)CN3CC[C@H](NC(=O)OC(C)(C)C)C3=O)CC[C@]3(C)[C@H](CC[C@@H]4[C@@]5(C)CC=C(c6ccc(C(=O)O)cc6)C(C)(C)[C@@H]5CC[C@]43C)[C@@H]12` [Example 109, 4-((1R,3aS,5aR,5bR,7aR,11aS,11bR,13aR,13bR)-3a-(2-((S)-3-(tert-butoxycarbonylamino)-2-oxopyrrolidin-1-yl)acetamido)-5a,5b,8,8,11a-pentamethyl-1-(prop-1-en-2-yl)-2,3,3a,4,5,5a,5b,6,7,7a,8,11,11a,11b,12,13,13a,13b-octadecahydro-1H-cyclopenta[a]chrysen-9-yl)benzoic acid] was tested. Which EC50 did it give?
A: The EC50 was < 100 nM.

Q: With `C=C(C)[C@@H]1CC[C@]2(NCC3CC3)CC[C@]3(C)[C@H](CC[C@@H]4[C@@]5(C)CC=C(c6ccc(C(=O)O)cc6)C(C)(C)[C@@H]5CC[C@]43C)[C@@H]12` [Example 152, 4-((1R,3aS,5aR,5bR,7aR,11aS,11bR,13aR,13bR)-3a-(cyclopropylmethylamino)-5a,5b,8,8,11a-pentamethyl-1-(prop-1-en-2-yl)-2,3,3a,4,5,5a,5b,6,7,7a,8,11,11a,11b,12,13,13a,13b-octadecahydro-1H-cyclopenta[a]chrysen-9-yl)benzoic acid] as the compound, how does the EC50 read?
A: The EC50 was < 100 nM.

Q: With `C=C(C)[C@@H]1CC[C@]2(NCC(=O)NC)CC[C@]3(C)[C@H](CC[C@@H]4[C@@]5(C)CC=C(c6ccc(C(=O)O)cc6)C(C)(C)[C@@H]5CC[C@]43C)[C@@H]12` [Example 148, 4-((1R,3aS,5aR,5bR,7aR,11aS,11bR,13aR,13bR)-5a,5b,8,8,11a-pentamethyl-3a-(2-(methylamino)-2-oxoethylamino)-1-(prop-1-en-2-yl)-2,3,3a,4,5,5a,5b,6,7,7a,8,11,11a,11b,12,13,13a,13b-octadecahydro-1H-cyclopenta[a]chrysen-9-yl)benzoic acid] as the compound, how does the EC50 read?
A: The EC50 was < 100 nM.

Q: For `C=C(C)[C@@H]1CC[C@]2(NCCN3CCS(=O)(=O)CC3)CC[C@]3(C)[C@H](CC[C@@H]4[C@@]5(C)CC=C(c6ccc(C(=O)O)c(F)c6)C(C)(C)[C@@H]5CC[C@]43C)[C@@H]12` [Example A2, benzoic acid, 4-[(1R,3aS,5aR,5bR,7aR,11aS,11bR,13aR,13bR)-3a-[[2-(1,1-dioxido-4-thiomorpholinyl)ethyl]amino]-2,3,3a,4,5,5a,5b,6,7,7a,8,11,11a,11b,12,13,13a,13b-octadecahydro-5a,5b,8,8,11a-pentamethyl-1-(1-methylethenyl)-1H-cyclopenta[a]chrysen-9-yl]-2-fluoro-, HCl], which EC50 is on record?
A: Its EC50 is < 100 nM.

Q: With `C=C(C)[C@@H]1CC[C@]2(NC(=O)N3CCN(C(=O)OC(C)(C)C)CC3CO)CC[C@]3(C)[C@H](CC[C@@H]4[C@@]5(C)CC=C(c6ccc(C(=O)O)cc6)C(C)(C)[C@@H]5CC[C@]43C)[C@@H]12` (mixture of isomers) [Example 61, 4-((1R,3aS,5aR,5bR,7aR,11aS,11bR,13aR,13bR)-3a-(4-(tert-butoxycarbonyl)-2-(hydroxymethyl)piperazine-1-carboxamido)-5a,5b,8,8,11a-pentamethyl-1-(prop-1-en-2-yl)-2,3,3a,4,5,5a,5b,6,7,7a,8,11,11a,11b,12,13,13a,13b-octadecahydro-1H-cyclopenta[a]chrysen-9-yl)benzoic acid] as the compound, how does the EC50 read?
A: The EC50 was < 100 nM.

Q: How did the EC50 turn out when `C=C(C)[C@@H]1CC[C@]2(NCCS(C)(=O)=O)CC[C@]3(C)[C@H](CC[C@@H]4[C@@]5(C)CC=C(c6ccc(C(=O)O)cc6)C(C)(C)[C@@H]5CC[C@]43C)[C@@H]12` [Example 136, 4-((1R,3aS,5aR,5bR,7aR,11aS,11bR,13aR,13bR)-5a,5b,8,8,11a-pentamethyl-3a-(2-(methylsulfonyl)ethylamino)-1-(prop-1-en-2-yl)-2,3,3a,4,5,5a,5b,6,7,7a,8,11,11a,11b,12,13,13a,13b-octadecahydro-1H-cyclopenta[a]chrysen-9-yl)benzoic acid] was run?
A: Its EC50 is < 100 nM.

Q: With `C=C(C)[C@@H]1CC[C@]2(NCCNC(C)=O)CC[C@]3(C)[C@H](CC[C@@H]4[C@@]5(C)CC=C(c6ccc(C(=O)O)cc6)C(C)(C)[C@@H]5CC[C@]43C)[C@@H]12` [Example 195, 4-((1R,3aS,5aR,5bR,7aR,11aS,11bR,13aR,13bR)-3a-(2-acetamidoethylamino)-5a,5b,8,8,11a-pentamethyl-1-(prop-1-en-2-yl)-2,3,3a,4,5,5a,5b,6,7,7a,8,11,11a,11b,12,13,13a,13b-octadecahydro-1H-cyclopenta[a]chrysen-9-yl)benzoic acid] as the compound, how does the EC50 read?
A: Its EC50 is < 100 nM.

Q: How did the EC50 turn out when `C=C(C)[C@@H]1CC[C@]2(NC(=O)CNS(=O)(=O)c3cccs3)CC[C@]3(C)[C@H](CC[C@@H]4[C@@]5(C)CC=C(c6ccc(C(=O)O)cc6)C(C)(C)[C@@H]5CC[C@]43C)[C@@H]12` [Example 115, 4-((1R,3aS,5aR,5bR,7aR,11aS,11bR,13aR,13bR)-5a,5b,8,8,11a-pentamethyl-1-(prop-1-en-2-yl)-3a-(2-(thiophene-2-sulfonamido)acetamido)-2,3,3a,4,5,5a,5b,6,7,7a,8,11,11a,11b,12,13,13a,13b-octadecahydro-1H-cyclopenta[a]chrysen-9-yl)benzoic acid] was run?
A: The EC50 was < 100 nM.

Q: `C=C(C)[C@@H]1CC[C@]2(NCCN3CCC(C(=O)O)CC3)CC[C@]3(C)[C@H](CC[C@@H]4[C@@]5(C)CC=C(c6ccc(C(=O)O)cc6)C(C)(C)[C@@H]5CC[C@]43C)[C@@H]12` [Example 170, 1-(2-(((1R,3aS,5aR,5bR,7aR,11aS,11bR,13aR,13bR)-9-(4-carboxyphenyl)-5a,5b,8,8,11a-pentamethyl-1-(prop-1-en-2-yl)-2,3,3a,4,5,5a,5b,6,7,7a,8,11,11a,11b,12,13,13a,13b-octadecahydro-1H-cyclopenta[a]chrysen-3a-yl)amino)ethyl)piperidine-4-carboxylic acid] was tested. Which EC50 did it give?
A: Its EC50 is < 100 nM.

Q: How did the EC50 turn out when `C=C(C)[C@@H]1CC[C@]2(NC(=O)CCN3CCS(=O)(=O)CC3)CC[C@]3(C)[C@H](CC[C@@H]4[C@@]5(C)CC=C(c6ccc(C(=O)O)cc6)C(C)(C)[C@@H]5CC[C@]43C)[C@@H]12` [Example 81, benzoic acid, 4-[(1R,3aS,5aR,5bR,7aR,11aS,11bR,13aR,13bR)-3a-[[3-(1,1-dioxido-4-thiomorpholinyl)-1-oxopropyl]amino]-2,3,3a,4,5,5a,5b,6,7,7a,8,11,11a,11b,12,13,13a,13b-octadecahydro-5a,5b,8,8,11a-pentamethyl-1-(1-methylethenyl)-1H-cyclopenta[a]chrysen-9-yl]] was run?
A: Its EC50 is < 100 nM.

Same assay, conditions: Renilla, NL43, luciferase activity in cells infected for 4-5 days with NLRluc recombinants, serial dilutions of inhibitor; numeric values; read-out: EC50

Q: How did the EC50 turn out when `C=C(C)[C@@H]1CC[C@]2(NC(=O)NCCN(C)C)CC[C@]3(C)[C@H](CC[C@@H]4[C@@]5(C)CC=C(c6ccc(C(=O)O)cc6)C(C)(C)[C@@H]5CC[C@]43C)[C@@H]12` [Example 3, 4-((1R,3aS,5aR,5bR,7aR,11aS,11bR,13aR,13bR)-3a-(3-(2-(dimethylamino)ethyl)ureido)-5a,5b,8,8,11a-pentamethyl-1-(prop-1-en-2-yl)-2,3,3a,4,5,5a,5b,6,7,7a,8,11,11a,11b,12,13,13a,13b-octadecahydro-1H-cyclopenta[a]chrysen-9-yl)benzoic acid] was run?
A: The EC50 was 4 nM.
